Measurements as given in US11673876B2, “Substituted aminobenzyl heteroaryl compounds as EGFR and/or PI3K inhibitors” (Mekanistic Therapeutics LLC, priority 2020, dated 2023).

Key:
Format in all cases: biochemical
PI3Ka = PI3Ka (Homo sapiens (Human), UniProt P42336); experiment: Z'-LYTE / Adapta kinase assay, PI3Ka; details: read-out: PI3Ka % Inh. @ 100 nM
Excerpt: (§1) The Z′-LYTE® biochemical assay employs a fluorescence-based, coupled-enzyme format and is based on the differential sensitivity of phosphorylated and non-phosphorylated peptides to proteolytic cleavage (FIG. 6). The peptide substrate is labeled with two fluorophores one at each end—that make up a FRET pair. In the primary reaction, the kinase transfers the gamma-phosphate of ATP to a single tyrosine, serine or threonine residue in a synthetic FRET-peptide. In the secondary reaction, a site-specific protease recognizes and cleaves non-phosphorylated FRET-peptides. Phosphorylation of FRET-peptides suppresses cleavage by the Development Reagent. Cleavage disrupts FRET between the donor (i.e., coumarin) and acceptor (i.e., fluorescein) fluorophores on the FRET-peptide, whereas uncleaved, phosphorylated FRET-peptides maintain FRET. A ratiometric method, which calculates the ratio (the Emission Ratio) of donor emission to acceptor emission after excitation of the donor fluorophore at 400 nm, is used to quantitate reaction progress.
(§2) A significant benefit of this ratiometric method for quantitating reaction progress is the elimination of well-to-well variations in FRET-peptide concentration and signal intensities. As a result, the assay yields very high Z′-factor values (>0.7) at a low percent phosphorylation.
(§3) Both cleaved and uncleaved FRET-peptides contribute to the fluorescence signals and therefore to the Emission Ratio. The extent of phosphorylation of the FRET-peptide can be calculated from the Emission Ratio.
(§4) Enzyme: The ADAPTA universal kinase assay is a homogenous, fluorescent based immunoassay for the detection of ADP. In contrast to ATP depletion assays, the ADAPTA assay is extremely sensitive to ADP formation such that a majority of the signal change occurs in the first 10-20% conversion of ATP to ADP. This makes the ADAPTA universal kinase assay ideally suited for use with low activity kinases.
(§5) The principle of the ADAPTA universal kinase assay is outlined below. The assay itself can be divided into two phases: a kinase reaction phase, and an ADP detection phase. In the kinase reaction phase, all components required for the kinase reaction are added to the well, and the reaction is allowed to incubate for 60 minutes.
(§6) Z′-LYTE® Assay Conditions:
(§7) Test Compounds: The Test Compounds are screened in 1% DMSO (final) in the well. For 10 point titrations, 3-fold serial dilutions are conducted from the starting concentration.
(§8) Peptide/Kinase Mixtures: All Peptide/Kinase Mixtures are diluted to a 2× working concentration in the appropriate Kinase Buffer.
(§9) ATP Solution: All ATP Solutions are diluted to a 4× working concentration in Kinase Buffer (50 mM HEPES pH 7.5, 0.01% BRIJ-35, 10 mM MgCl2, 1 mM EGTA). ATP Km apparent is previously determined using a Z′-LYTE® assay.
(§10) Development Reagent Solution: The Development Reagent is diluted in Development Buffer. […]
(§11) 2.5 μL—4× Test Compound or 100 nL 100× plus 2.4 μL kinase buffer. 2. 5 μL—2× Peptide/Kinase Mixture. 3. 2.5 μL—4× ATP Solution. 4. 30-second plate shake. 5. 60-minute Kinase Reaction incubation at room temperature. 6. 5 μL—Development Reagent Solution. 7. 30-second plate shake. 8. 60-minute Development Reaction incubation at room temperature. 9.

DNA-PK = DNA-PK (Homo sapiens (Human), UniProt P78527); experiment: Z'-LYTE / Adapta kinase assay, DNA-PK; details: read-out: DNA-PK % Inh. @ 100 nM
Excerpt: as §1, §2, §3, §4, §5, §6, §7, §8, §9, §10, §11

EGFR = EGFR (Homo sapiens (Human), UniProt P00533); experiment: Z'-LYTE / Adapta kinase assay, EGFR; details: read-out: EGFR % Inh. @ 100 nM
Excerpt: as §1, §2, §3, §4, §5, §6, §7, §8, §9, §10, §11

Chain of PI3Ka (P42336 whole entry): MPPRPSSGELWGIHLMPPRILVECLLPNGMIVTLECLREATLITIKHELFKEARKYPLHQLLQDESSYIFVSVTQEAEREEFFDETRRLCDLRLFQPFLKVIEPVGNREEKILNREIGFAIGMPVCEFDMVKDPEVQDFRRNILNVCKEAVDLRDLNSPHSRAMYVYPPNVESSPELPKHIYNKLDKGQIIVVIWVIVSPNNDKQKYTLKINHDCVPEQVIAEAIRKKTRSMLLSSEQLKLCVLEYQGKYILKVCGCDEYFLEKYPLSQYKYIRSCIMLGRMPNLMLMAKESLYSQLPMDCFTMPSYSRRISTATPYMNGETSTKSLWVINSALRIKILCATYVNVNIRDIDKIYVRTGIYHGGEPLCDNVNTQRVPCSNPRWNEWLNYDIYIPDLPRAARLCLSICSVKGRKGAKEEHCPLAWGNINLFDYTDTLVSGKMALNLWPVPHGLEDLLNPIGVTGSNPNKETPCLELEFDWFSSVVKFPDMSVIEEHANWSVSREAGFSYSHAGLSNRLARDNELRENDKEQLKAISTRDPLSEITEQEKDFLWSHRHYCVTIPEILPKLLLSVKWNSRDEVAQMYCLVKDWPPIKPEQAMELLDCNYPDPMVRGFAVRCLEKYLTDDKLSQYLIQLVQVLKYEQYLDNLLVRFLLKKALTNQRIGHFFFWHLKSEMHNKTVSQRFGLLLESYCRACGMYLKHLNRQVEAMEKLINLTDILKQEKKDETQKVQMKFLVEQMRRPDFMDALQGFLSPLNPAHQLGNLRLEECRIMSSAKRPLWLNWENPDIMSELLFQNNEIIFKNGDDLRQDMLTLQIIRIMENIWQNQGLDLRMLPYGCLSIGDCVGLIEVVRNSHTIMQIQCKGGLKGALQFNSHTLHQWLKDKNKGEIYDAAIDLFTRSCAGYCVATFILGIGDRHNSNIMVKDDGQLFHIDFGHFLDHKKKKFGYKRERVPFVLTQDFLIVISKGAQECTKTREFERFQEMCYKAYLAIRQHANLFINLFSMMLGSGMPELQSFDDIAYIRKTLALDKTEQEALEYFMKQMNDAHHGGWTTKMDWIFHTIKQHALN
Chain of PI3Ka (P27986 whole entry partner): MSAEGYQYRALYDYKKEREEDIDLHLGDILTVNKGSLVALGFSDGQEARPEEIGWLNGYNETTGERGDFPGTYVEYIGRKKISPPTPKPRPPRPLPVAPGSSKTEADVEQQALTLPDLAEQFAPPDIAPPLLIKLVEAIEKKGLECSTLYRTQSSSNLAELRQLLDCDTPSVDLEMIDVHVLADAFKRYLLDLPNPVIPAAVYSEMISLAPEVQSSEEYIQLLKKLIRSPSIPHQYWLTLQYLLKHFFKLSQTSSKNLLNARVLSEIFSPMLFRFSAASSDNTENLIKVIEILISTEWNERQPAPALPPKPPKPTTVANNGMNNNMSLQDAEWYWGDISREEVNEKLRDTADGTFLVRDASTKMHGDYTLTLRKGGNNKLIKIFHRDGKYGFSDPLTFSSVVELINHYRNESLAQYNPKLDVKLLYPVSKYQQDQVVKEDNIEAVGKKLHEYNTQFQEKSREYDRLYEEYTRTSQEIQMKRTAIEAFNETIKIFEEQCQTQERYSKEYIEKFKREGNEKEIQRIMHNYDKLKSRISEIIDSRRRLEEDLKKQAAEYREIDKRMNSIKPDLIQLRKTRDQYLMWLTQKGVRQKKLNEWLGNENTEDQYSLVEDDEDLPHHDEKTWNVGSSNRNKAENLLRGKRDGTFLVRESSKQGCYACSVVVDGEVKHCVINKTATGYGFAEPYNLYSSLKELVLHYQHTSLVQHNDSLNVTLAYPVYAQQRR
Chain of EGFR (P00533 25-1210): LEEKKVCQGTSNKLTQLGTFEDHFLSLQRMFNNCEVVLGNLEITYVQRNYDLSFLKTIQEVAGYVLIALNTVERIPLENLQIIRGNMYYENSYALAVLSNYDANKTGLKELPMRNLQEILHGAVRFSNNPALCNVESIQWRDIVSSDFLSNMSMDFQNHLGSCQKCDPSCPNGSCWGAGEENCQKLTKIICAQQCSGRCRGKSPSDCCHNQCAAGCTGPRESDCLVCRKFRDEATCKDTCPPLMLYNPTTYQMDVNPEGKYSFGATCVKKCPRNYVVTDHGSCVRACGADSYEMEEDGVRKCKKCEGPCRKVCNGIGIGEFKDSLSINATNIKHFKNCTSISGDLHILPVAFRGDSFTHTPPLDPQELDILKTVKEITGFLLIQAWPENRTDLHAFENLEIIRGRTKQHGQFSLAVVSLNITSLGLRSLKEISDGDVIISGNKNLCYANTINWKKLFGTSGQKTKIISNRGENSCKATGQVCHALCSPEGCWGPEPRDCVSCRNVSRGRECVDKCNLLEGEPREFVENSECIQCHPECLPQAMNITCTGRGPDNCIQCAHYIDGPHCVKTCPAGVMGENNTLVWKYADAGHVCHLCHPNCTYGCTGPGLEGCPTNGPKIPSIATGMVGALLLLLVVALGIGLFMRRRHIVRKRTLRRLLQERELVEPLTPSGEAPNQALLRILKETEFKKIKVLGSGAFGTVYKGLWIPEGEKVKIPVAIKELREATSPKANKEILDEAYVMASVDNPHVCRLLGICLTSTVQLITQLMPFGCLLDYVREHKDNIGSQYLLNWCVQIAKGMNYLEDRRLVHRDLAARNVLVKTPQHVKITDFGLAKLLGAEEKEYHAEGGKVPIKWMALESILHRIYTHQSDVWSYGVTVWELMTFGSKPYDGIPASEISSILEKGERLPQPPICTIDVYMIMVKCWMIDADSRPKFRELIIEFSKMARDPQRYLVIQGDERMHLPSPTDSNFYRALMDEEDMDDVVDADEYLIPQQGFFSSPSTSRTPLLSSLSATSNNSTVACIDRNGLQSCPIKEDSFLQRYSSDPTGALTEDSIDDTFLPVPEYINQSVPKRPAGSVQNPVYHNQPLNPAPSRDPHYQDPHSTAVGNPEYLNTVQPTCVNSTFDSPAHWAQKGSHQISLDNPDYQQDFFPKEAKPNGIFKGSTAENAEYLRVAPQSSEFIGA

| Structure (SMILES) | inhibition at 0.1 µM (PI3Ka) [%] | inhibition at 0.1 µM (DNA-PK) [%] | inhibition at 0.1 µM (EGFR) [%] |
| --- | --- | --- | --- |
| CC(Nc1c(C#N)cnc2ccc(-c3cccc(-c4nnc[nH]4)c3)cc12)c1ccccc1 (centres unmarked) [Compound 128, 4-(1-phenylethylamino)-6-[3-(4H-1,2,4-triazol-3-yl)phenyl]quinoline-3-carbonitrile] | < 10 | < 10 | 80 to 90 |
| CC(Nc1c(C#N)cnc2ccc(-c3cnc4cnn(C)c4c3)cc12)c1ccccc1 (centres unmarked) [Compound 73, 6-(1-methylpyrazolo [4,3-b]pyridin-6-yl)-4-(1-phenylethylamino) quinoline-3-carbonitrile] | 10 to 80 | < 10 | 10 to 80 |
| CC(Nc1c(C#N)cnc2ccc(-c3cc(F)c(O)c(F)c3)cc12)c1ccccc1 (centres unmarked) [Compound 130, 6-(3,5-difluoro-4-hydroxy-phenyl)-4-(1-phenylethylamino) quinoline-3-carbonitrile] | < 10 | < 10 | 10 to 80 |
| CS(=O)(=O)Nc1cc(-c2ccc3ncc(C#N)c(NC4c5ccccc5CC4O)c3c2)cnc1Cl (centres unmarked) [Compound 103, N-[2-chloro-5-[3-cyano-4-[(2-hydroxyindan-1-yl)amino]-6-quinolyl]-3-pyridyl]methanesulfonamide] |  | > 90 | < 10 |
| CC(Nc1c(C#N)cnc2ccc(-c3cc(Cl)c(O)c(Cl)c3)cc12)c1ccccc1 (centres unmarked) [Compound 131, 6-(3,5-dichloro-4-hydroxy-phenyl)-4-(1-phenylethylamino) quinoline-3-carbonitrile] | < 10 | < 10 | 10 to 80 |
| COc1ncc(-c2ccc3ncc(C#N)c(NC(C)c4ccccc4)c3c2)cc1C#N (centres unmarked) [Compound 126, 6-(5-cyano-6-methoxy-3-pyridyl)-4-(1-phenylethylamino) quinoline-3-carbonitrile] | 10 to 80 | < 10 | 10 to 80 |
| CC(Nc1c(C#N)cnc2ccc(-c3cnc(N)c(C#N)c3)cc12)c1ccccc1 (centres unmarked) [Compound 65, 6-(6-amino-5-cyano-3-pyridyl)-4-(1-phenylethylamino) quinoline-3-carbonitrile] | 10 to 80 | 10 to 80 | 80 to 90 |
| CC(Nc1c(C#N)cnc2ccc(-c3cnc4[nH]ccc4c3)cc12)c1ccccc1 (centres unmarked) [Compound 55, 4-(1-phenylethylamino)-6-(1H-pyrrolo [2,3-b]pyridin-5-yl) quinoline-3-carbonitrile] | < 10 | 10 to 80 | 10 to 80 |
| COc1cc(-c2ccc3ncc(C#N)c(NC(C)c4ccccc4)c3c2)cnc1OC (centres unmarked) [Compound 68, 6-(5,6-dimethoxy-3-pyridyl)-4-(1-phenylethylamino)quinoline-3-carbonitrile] | 10 to 80 | 10 to 80 | 80 to 90 |
| CC(Nc1c(C#N)cnc2ccc(-c3cncc(O)c3)cc12)c1ccccc1 (centres unmarked) [Compound 61, 6-(5-hydroxy-3-pyridyl)-4-(1-phenylethylamino) quinoline-3-carbonitrile] | < 10 | 10 to 80 | 80 to 90 |
| CC(Nc1c(C#N)cnc2ccc(-c3ccc4oc(N)nc4c3)cc12)c1ccccc1 (centres unmarked) [Compound 87, 6-(2-amino-1,3-benzoxazol-5-yl)-4-(1-phenylethylamino) quinoline-3-carbonitrile] | 10 to 80 | < 10 | 80 to 90 |
| CC(Nc1c(C#N)cnc2ccc(-c3cnc(N)c(C(F)(F)F)c3)cc12)c1ccccc1 (centres unmarked) [Compound 62, 6-(6-amino-5-(trifluoromethyl)pyridin-3-yl)-4-((1-phenylethyl)amino)quinoline-3-carbonitrile] | < 10 | 10 to 80 | 10 to 80 |
| CC(Nc1c(C#N)cnc2ccc(-c3cnc4[nH]nnc4c3)cc12)c1ccccc1 (centres unmarked) [Compound 70, 4-(1-phenylethylamino)-6-(3H-triazolo [4,5-b]pyridin-6-yl) quinoline-3-carbonitrile] | 10 to 80 | 10 to 80 | 80 to 90 |
| CC(Nc1c(C#N)cnc2ccc(-c3cnc4ccccc4c3)cc12)c1ccccc1 (centres unmarked) [Compound 122, 4-(1-phenylethylamino)-6-(3-quinolyl)quinoline-3-carbonitrile] | < 10 | < 10 | 10 to 80 |

Other lines, results leading:

| inhibition at 0.1 µM (PI3Ka) [%] | inhibition at 0.1 µM (DNA-PK) [%] | inhibition at 0.1 µM (EGFR) [%] | Structure (SMILES) |
| --- | --- | --- | --- |
| < 10 | 10 to 80 | > 90 | CC(Nc1c(C#N)cnc2ccc(-c3cccnc3)cc12)c1ccccc1 (centres unmarked) [Compound 123, 4-(1-phenylethylamino)-6-(3-pyridyl) quinoline-3-carbonitrile] |
| 10 to 80 | 10 to 80 | 80 to 90 | CC(Nc1ncnc2ccc(-c3cncc(C(C)(C)O)c3)cc12)c1ccccc1 (centres unmarked) [Compound 21, 2-[5-[4-(1-phenylethylamino)quinazolin-6-yl]-3-pyridyl]propan-2-ol] |
| 10 to 80 | < 10 | > 90 | C[C@@H](Nc1ncnc2ccc(-c3cccc(-c4nnc[nH]4)c3)cc12)c1ccccc1 [Compound 137, N-[(1R)-1-phenylethyl]-6-[3-(4H-1,2,4-triazol-3-yl)phenyl]quinazolin-4-amine] |
| 10 to 80 | 10 to 80 | 10 to 80 | CC(Nc1ncnc2ccc(-c3cnc(N)c(C(=O)N(C)C)c3)cc12)c1ccccc1 (centres unmarked) [Compound 36, 2-amino-N, N-dimethyl-5-[4-(1-phenylethylamino)quinazolin-6-yl] pyridine-3-carboxamide] |
| 10 to 80 | 10 to 80 | 80 to 90 | Cc1nc2cc(-c3ccc4ncnc(NC(C)c5ccccc5)c4c3)cnc2[nH]1 (centres unmarked) [Compound 10, 6-(2-methyl-1H-imidazo[4,5-b]pyridin-6-yl)-N-(1-phenylethyl)quinazolin-4-amine] |
| > 90 | 80 to 90 | > 90 | CC(Nc1ncnc2ccc(-c3cnc4cncn4c3)cc12)c1ccccc1 (centres unmarked) [Compound 34, 6-(imidazo[1,5-a]pyrimidin-3-yl)-N-(1-phenylethyl)quinazolin-4-amine] |
| < 10 | < 10 | < 10 | C[C@@H](Nc1ncnc2ccc(-c3cncc(C(=O)NC#N)c3)cc12)c1ccccc1 [Compound 133, (R)-N-cyano-5-(4-((1-phenylethyl)amino)quinazolin-6-yl)nicotinamide] |
| 10 to 80 | < 10 | 10 to 80 | CC(Nc1ncnc2ccc(-c3cnc4cnccn34)cc12)c1ccccc1 (centres unmarked) [Compound 139, 6-imidazo[1,2-a]pyrazin-3-yl-N-(1-phenylethyl)quinazolin-4-amine] |
| < 10 | < 10 | 10 to 80 | COc1ncc(-c2ccc3ncnc(N[C@H](C)c4ccccc4)c3c2)cc1C#N [Compound 132, 2-methoxy-5-[4-[[(1R)-1-phenylethyl]amino]quinazolin-6-yl]pyridine-3-carbonitrile] |
| 10 to 80 | < 10 | > 90 | CC(Nc1ncnc2ccc(-c3ccc4oc(N)nc4c3)cc12)c1ccccc1 (centres unmarked) [Compound 41, 5-[4-(1-phenylethylamino)quinazolin-6-yl]-1,3-benzoxazol-2-amine] |
